In article PMC11249646, “Small-Molecule Disruptors of the Interaction between Calcium- and Integrin-Binding Protein 1 and Integrin αIIbβ3 as Novel Antiplatelet Agents” (ACS Pharmacology & Translational Science, 2024):
pIC50: −log10 of the molar value. Like-named read-outs stand apart in the source and are kept apart here.

Tests used:
Assay type in all cases: binding
[1] = biological target: T1, CIB1 and αIIb interaction (GST-CIB1 : F-αIIb peptide) (Homo sapiens, UniProt Q99828); assay: FP assay, 384-well format (screen); parameters: 384-well SCREEN Efficacy (%): concentration or dose not given beside the values; conditions: for 384-well SCREEN Efficacy (%) / 384-well SCREEN Confirm? / pIC50: F-αIIb peptide; for 384-well SCREEN Confirm?: YES/NO; for pIC50: read-out: 384-well SCREEN IC50
T1 construct: made in house; host or cells: BL-21 plus RIL cells (E. coli)
T1 sequence (Q99828 1-191): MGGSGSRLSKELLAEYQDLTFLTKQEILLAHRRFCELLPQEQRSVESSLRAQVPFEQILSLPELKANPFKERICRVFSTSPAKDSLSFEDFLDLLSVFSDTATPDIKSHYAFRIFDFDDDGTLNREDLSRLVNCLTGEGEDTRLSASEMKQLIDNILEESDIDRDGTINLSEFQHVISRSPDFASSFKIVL

[2] = biological target: T2, GST-CIB1 : F-scrambled peptide (Homo sapiens, UniProt Q99828); assay: FP scrambled-peptide counter screen, 384-well format; conditions: F-scrambled peptide; for 384-well COUNTERSCREEN Confirm?: *: Curve in opposite direction; for pIC50: read-out: 384-well COUNTERSCREEN IC50
T2 construct: made in house; host or cells: BL-21 plus RIL cells (E. coli)
T2 sequence (Q99828 1-191): T1 sequence (Q99828 1-191)

[3] = biological target: T3, CIB1 and αIIb interaction (CIB1-GST : F-αIIb peptide) (Homo sapiens, UniProt Q99828); assay: FP assay, 1536-well qHTS format (primary and confirmatory screen); conditions: for CONFIRMATORY SCREEN Confirm?: YES/NO call; for CONFIRMATORY SCREEN Curve Class: qHTS curve class; for CONFIRMATORY SCREEN Curve Class / Curve Class: negative sign = inhibitory curve; for CONFIRMATORY SCREEN Efficacy (%) / Efficacy (%): negative = inhibition
T3 construct: made in house; host or cells: BL-21 plus RIL cells (E. coli)
T3 sequence (Q99828 1-191): T1 sequence (Q99828 1-191)

[4] = biological target: T2, GST-CIB1 : F-scrambled peptide; assay: FP scrambled-peptide counter screen, 1536-well format; conditions: scrambled-peptide counterscreen; for COUNTERSCREEN Confirm?: YES/NO call; for COUNTERSCREEN Curve Class: qHTS curve class; for pIC50: read-out: COUNTERSCREEN IC50
[5] = confirmatory screen, read-out: CONFIRMATORY SCREEN IC50
[6] = qHTS FP screen hits, Table S2, one class per curve where COUNT > 1
[7] = qHTS FP screen hits, Table S2, read-out: IC50
[8] = qHTS primary screen hits, Table S2
[9] = qHTS primary screen hits, Table S2, several classes where COUNT > 1
[10] = qHTS primary screen hits, Table S2, read-out: IC50

Row | Efficacy (%) ([3]; qHTS FP screen hits, Table S2) | pIC50 [3, 7] | SMILES | 384-well SCREEN Efficacy (%) [1] | 384-well SCREEN Confirm? [1] | pIC50 [1] | 384-well COUNTERSCREEN Efficacy (%) [2] | 384-well COUNTERSCREEN Confirm? [2] | pIC50 [2] | CONFIRMATORY SCREEN Confirm? ([3]; confirmatory screen) | CONFIRMATORY SCREEN Curve Class ([3]; confirmatory screen) | CONFIRMATORY SCREEN Efficacy (%) ([3]; confirmatory screen) | pIC50 [3, 5] | COUNTERSCREEN Efficacy (%) [4] | COUNTERSCREEN Confirm? [4] | COUNTERSCREEN Curve Class [4] | pIC50 [4] | Efficacy (%) [3, 8] | Curve Class [3, 9] | pIC50 [3, 10] | also measured
1 |  |  | CCOC(=O)N1CCN([N+]([O-])=NOc2ccc([N+](=O)[O-])cc2[N+](=O)[O-])CC1 [NCGC00165815-03] | 61% | YES | 5.74 | 48% | YES | 4.80 | YES | -1.2 | -62% | 5.20 | -56% | YES | -2.2 | 4.35 |  |  |  | 
2 | -79% | 5.05 | Cn1sc(=O)n(Cc2ccccc2)c1=O [NCGC00165913-03] | 90% | YES | 5.77 | -20% | YES | < 3.92 | YES | -1.2 | -81% | 5.10 | -22% | YES | 4 |  |  |  |  | Curve Class [3, 6]: -1.2
3 |  |  | COc1cc(/C=C2/N=C(c3ccccc3)OC2=O)c(F)cc1OCc1ccccc1 [NCGC00168015-01] | 22% |  | < 3.92 | 32% |  | < 3.92 | YES | -2.2 | -79% | 4.35 | -24% | YES | 4 |  | -91% | -2.1 | 4.30 | 
4 |  |  | O=Cc1c(-c2ccccc2)no[n+]1[O-] [NCGC00168371-01] | 73% | YES | 4.85 | 51% | Inconclusive | 4.75 | YES | -1.2 | -69% | 4.65 | -14% | YES | 4 |  | -73% |  | 4.30 | Confirm and Selective? ([1]; selective toward αIIb: negative curve class and/or IC50 ratio of >3-fold and/or >2-fold efficacy vs scrambled peptide): Inconclusive; Curve Class [3, 8]: -2.2
5 | -51% | 4.33 | CCC(=O)NC(c1cccs1)c1cc([N+](=O)[O-])c2cccnc2c1O (centres unmarked) [NCGC00182956-10] | 23% |  | < 3.92 | 47% |  | 4.75 | YES | -3 | -53% | 4.30 | -17% | YES | 4 |  |  |  |  | 
6 |  |  | C=CCNc1oc(-c2ccc(-c3ccccc3)cc2)nc1C#N.O=C(O)C(F)(F)F [NCGC00183413-01] | 74% | YES | 5.15 | 58% |  | 5.15 | YES | -1.2 | -66% | 4.75 | -17% | YES | 4 |  | -28% | -1.4 | 5.00 | 
7 | -43% | 5.09 | CCc1ccc(/C=C2/SC(=S)NC2=O)cc1 [NCGC00185994-01] | 44% | YES | 4.75 | 68% | YES | < 3.92 | YES | -1.1 | -93% | 5.05 | 0% | YES | 4 |  |  |  |  | 
8 |  |  | Cc1ccc(S(=O)(=O)Nc2nn3c(=O)c4ccccc4nc3s2)cc1C.O=C(O)C(F)(F)F [NCGC00187578-01] | 27% |  | < 3.92 | 12% |  | < 3.92 | YES | -2.2 | -46% | 4.95 | 39% | YES | 4 |  | -22% | -1.4 | 4.85 | 
9 |  |  | O=C(O)C(F)(F)F.O=c1c2ccccc2nc2sc(NS(=O)(=O)c3ccc4c(c3)CCC4)nn12 [NCGC00187579-01] | 43% | YES | 4.35 | 28% | YES | < 3.92 | YES | -1.2 | -35% | 5.20 | 62% | YES |  | 4.45 | -32% |  | 5.55 | Curve Class [3, 8]: -1.4
10 |  |  | CSC(Cc1ccc(Cl)cc1)C(=O)Nc1ccc(Cl)cc1C(=O)O.O=C(O)C(F)(F)F (centres unmarked) [NCGC00189231-01] | 31% | YES | 3.92 | 29% | YES | < 3.92 | YES | -2.4 | -50% | 4.35 | 0% | YES | 4 |  | -23% | -2.4 | 4.65 | 
11 |  |  | O=C(O)C(F)(F)F.OCc1ccc(-c2ccc3ncnc(NCc4cccs4)c3c2)o1 [NCGC00189276-01] | 72% | YES | 4.90 | 34% | YES | < 3.92 | YES | -1.2 | -62% |  | 0% | YES | 4 |  | -57% | -1.2 | 4.60 | 
12 | -45% | 4.40 | Cc1cc(=O)oc2cc(SC3=NS(=O)(=O)c4ccccc43)ccc12 [NCGC00189497-01] | 52% | YES | 4.35 | 34% |  | 5.00 | YES | -1.4 | -39% | 4.70 | 115% | YES | 3 | 4.40 |  |  |  | Curve Class [3, 6]: -2.2

Row | SMILES | Efficacy (%) ([3]; qHTS FP screen hits, Table S2) | pIC50 [3, 7] | 384-well SCREEN Efficacy (%) [1] | 384-well SCREEN Confirm? [1] | pIC50 [1] | 384-well COUNTERSCREEN Efficacy (%) [2] | 384-well COUNTERSCREEN Confirm? [2] | pIC50 [2] | CONFIRMATORY SCREEN Confirm? ([3]; confirmatory screen) | CONFIRMATORY SCREEN Curve Class ([3]; confirmatory screen) | CONFIRMATORY SCREEN Efficacy (%) ([3]; confirmatory screen) | pIC50 [3, 5] | COUNTERSCREEN Efficacy (%) [4] | COUNTERSCREEN Confirm? [4] | COUNTERSCREEN Curve Class [4] | pIC50 [4] | Efficacy (%) [3, 8] | Curve Class [3, 9] | pIC50 [3, 10] | also measured
13 | COC(=O)[C@]12CCC(C)(C)C[C@H]1[C@H]1C(=O)C=C3[C@@]4(C)C=C(C#N)C(=O)C(C)(C)[C@@H]4CC[C@@]3(C)[C@]1(C)CC2 [NCGC00186460-01] | -24% | 4.97 | 77% | YES | 5.46 | 29% | YES | < 3.92 | YES | -1.2 | -71% | 5.15 | -36% | YES | -1.2 | 4.85 |  |  |  | 
14 | O=C(O)C(F)(F)F.O=c1c2ccccc2nc2sc(Nc3cccc(N4CCN5CCCCC5C4)c3)nn12 (centres unmarked) [NCGC00189229-01] | -20% | 5.60 | 42% | YES | 3.92 | 42% |  | 4.75 | YES | -1.2 | -50% | 5.10 | -28% | YES | -2.4 | 4.25 |  |  |  | 
